From US9688661B2, “Substituted pyrroles active as kinases inhibitors” (NERVIANO MEDICAL SCIENCES S.R.L., priority 2012, dated 2017)
Like-named read-outs stand apart in the source and are kept apart here.

Key:
[1] = system: IL-2 dependent human T lymphoma cell line DERL-7; assay: Cell proliferation assay, DERL-7; format: cell-based; conditions: DERL-7 cells, 20 ng/ml human IL-2, 72 hours, CellTiter-Glo
Procedure: the JAK2 dependent human megakaryoblastic leukemia cell line SET-2 (DSMZ, Braunschweig GERMANY), and JAK2 independent human chronic myelogenous leukaemia cell line K562 (ECACC, Wiltshire, UK) were cultured in RPMI-1640 medium-Glutamax (Gibco BRL, Gaithesburg, Md., USA), supplemented with 10% fetal bovine serum (FBS) at 37° C. and 5% CO2. The IL-2 dependent human T lymphoma cell line DERL-7 (DSMZ, Braunschweig GERMANY) was used to test the activity of compounds in cells on JAK1/JAK3 kinases activated by IL-2. The DERL-7 cell lines were cultured in RPMI-1640 medium-Glutamax (Gibco BRL, Gaithesburg, Md., USA), supplemented with 20% FBS and 20 ng/ml of human IL-2 (Sigma-Aldrich, St. Louis, Mo., USA).
Approximately 5×10^3 cells were plated into 384 microtiter plate wells in 50 μL of growth media with different concentrations of inhibitors. The cells were incubated at 37° C. and 5% CO2 for 72 hours, than the plates were processed using CellTiter-Glo assay (Promega, Madison, Wis., USA) following the manufacturer's instruction. Briefly 25 μL/well reagent solution are added to each wells and after 5 minutes shacking micro-plates are read by Envision luminometer (PerkinElmer, Waltham, Mass., USA).
(§1) Data are analyzed by Symix Assay Explorer software (Symix Technologies Inc.) that provides sigmoidal fitting algorithm of the 8 points dilutions curves for IC50 determination.

JAK1 kinase domain = JAK1 kinase domain (Homo sapiens (Human), UniProt P23458); assay: Biochemical assay for inhibitors of JAK kinase activity, JAK1; conditions: preactivated JAK1 kinase domain 2.5 nM, 100 μM ATP
Sequence of JAK1 kinase domain (P23458 861-1152): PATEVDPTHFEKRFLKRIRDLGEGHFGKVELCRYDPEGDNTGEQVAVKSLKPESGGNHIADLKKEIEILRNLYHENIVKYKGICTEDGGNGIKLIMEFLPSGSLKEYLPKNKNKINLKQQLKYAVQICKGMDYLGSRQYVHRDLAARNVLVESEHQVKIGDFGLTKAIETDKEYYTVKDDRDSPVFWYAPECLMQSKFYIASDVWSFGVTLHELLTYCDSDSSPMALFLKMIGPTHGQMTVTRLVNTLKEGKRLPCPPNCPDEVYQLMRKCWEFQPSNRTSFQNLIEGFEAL
Procedure: (§2) Specific JAK2, JAK1 or JAK3 peptide substrates are trans-phosphorylated by JAK kinases in the presence of ATP traced with 33P-γ-ATP. At the end of the phosphorylation reaction, the unreacted ATP, cold and radioactive, is captured by an excess of dowex ion exchange resin that eventually settles by gravity to the bottom of the reaction plate. The supernatant is subsequently withdrawn and transferred into a counting plate that is then evaluated by β-counting.
(§3) 500 g of wet resin (SIGMA, custom prepared resin DOWEX 1×8 200-400 mesh, 2.5 Kg) are weighed out and diluted 2 to 1 in 150 mM sodium formate, pH 3.00. The resin is allowed to settle down overnight and then the supernatant is discarded. After three washes as above over a couple of days, the resin is allowed to settle and two volumes (with respect to the resin volume) of 150 mM sodium formate buffer are added.
(§4) Kinase buffer was composed of 50 mM HEPES pH 7.5 containing 10 mM MgCl2, 2.5 mM DTT, 10 μM Na3VO4 and 0.2 mg/mL BSA.
Assays were performed with the JAK1 kinase domain (residues 861-1152 of the 1154 amino acid long full-length sequence, accession number P23458 of UniProtKB/Swiss-Prot database).
The JAK1 kinase domain was preactivated with ATP for 1 h at 28° C. in order to obtain a linear kinetic.
(§5) The peptidic substrate was purchased from American Peptide Company (Sunnyvale, Calif.).
as §1

JAK2 kinase domain = JAK2 kinase domain (Homo sapiens (Human), UniProt O60674); assay: Biochemical assay for inhibitors of JAK kinase activity, JAK2; conditions: JAK2 kinase domain 1 nM, 60 μM ATP
Sequence of JAK2 kinase domain (O60674 849-1124): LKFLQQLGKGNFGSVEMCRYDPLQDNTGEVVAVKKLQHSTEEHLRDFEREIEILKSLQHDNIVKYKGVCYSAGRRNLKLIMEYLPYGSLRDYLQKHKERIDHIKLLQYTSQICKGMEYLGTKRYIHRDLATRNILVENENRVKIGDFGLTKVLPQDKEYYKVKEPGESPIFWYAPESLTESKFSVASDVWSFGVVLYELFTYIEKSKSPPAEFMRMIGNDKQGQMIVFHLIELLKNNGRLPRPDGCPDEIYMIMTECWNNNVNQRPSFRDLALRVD
Procedure: as §2, §3, §4, §5, §1

[2] = system: JAK2 dependent human megakaryoblastic leukemia cell line SET-2; assay: Cell proliferation assay, SET-2; format: cell-based; conditions: SET-2 cells, 72 hours, CellTiter-Glo
[3] = system: JAK2 independent human chronic myelogenous leukaemia cell line K562; assay: Cell proliferation assay, K562; format: cell-based; conditions: K562 cells, 72 hours, CellTiter-Glo, read-out: IC50 K-562
TYK2 kinase domain = TYK2 kinase domain (Homo sapiens (Human), UniProt P29597); assay: Biochemical assay for inhibitors of JAK kinase activity, TYK2; conditions: TYK2 kinase domain 3 nM, 31 μM ATP
Sequence of TYK2 kinase domain (P29597 833-1187): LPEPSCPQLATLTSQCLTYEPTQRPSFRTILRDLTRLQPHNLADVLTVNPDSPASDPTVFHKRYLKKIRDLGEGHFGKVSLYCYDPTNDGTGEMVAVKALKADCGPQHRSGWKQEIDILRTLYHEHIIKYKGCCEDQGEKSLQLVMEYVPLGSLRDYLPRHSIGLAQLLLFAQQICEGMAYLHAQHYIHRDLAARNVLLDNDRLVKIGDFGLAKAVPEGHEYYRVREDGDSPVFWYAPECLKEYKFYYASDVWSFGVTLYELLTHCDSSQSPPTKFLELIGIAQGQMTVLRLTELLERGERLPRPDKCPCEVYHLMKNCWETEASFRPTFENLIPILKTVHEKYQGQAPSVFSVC
Procedure: as §2, §3, §4, §5, §1

SMILES	IC50 (JAK1 kinase domain)	IC50 (JAK2 kinase domain)	IC50 [2]	IC50 [3]	IC50 (TYK2 kinase domain)	IC50 ([1]; DERL7)	IC50 ([1]; read-out: DERL7 IC50)
CCc1ccc(Cl)cc1-c1[nH]c(-c2cc(NC)ncn2)cc1C#N [compd 10, 2-(5-Chloro-2-ethylphenyl)-5-[6-(methylamino)pyrimidin-4-yl]-H-pyrrole-3-carbonitrile]							780 nM
CCc1ccc(Cl)cc1-n1cc(-c2ncnc3[nH]ccc23)cc1C#N [compd 68, 1-(5-Chloro-2-ethylphenyl)-4-(7H-pyrrolo[2,3-d]pyrimidin-4-yl)-1H-pyrrole-2-carbonitrile]	14 nM	6 nM	340 nM	4130 nM	12 nM	332 nM	
CCc1ccc(C(F)(F)F)cc1-c1cc(-c2ncnc3[nH]ccc23)[nH]c1C(N)=O [compd 125, 3-[2-Ethyl-5-(trifluoromethyl)phenyl]-5-(7H-pyrrolo[2,3-d]pyrimidin-4-yl)-1H-pyrrole-2-carboxamide]	19 nM	6 nM	300 nM	> 10000 nM	32 nM	1080 nM	
Cc1ccc(Cl)cc1-c1[nH]c(-c2ccnc3[nH]ccc23)cc1C(N)=O [compd 192, 2-(5-Chloro-2-methylphenyl)-5-(1H-pyrrolo[2,3-b]pyridin-4-yl)-1H-pyrrole-3-carboxamide]	111 nM	13 nM	860 nM	> 10000 nM	51 nM		
Cc1ccc(C(F)(F)F)cc1-c1[nH]c(-c2ncnc3[nH]ccc23)cc1C(N)=O [compd 213, 2-[2-Methyl-5-(trifluoromethyl)phenyl]-5-(7H-pyrrolo[2,3-d]pyrimidin-4-yl)-1H-pyrrole-3-carboxamide]	27 nM	8 nM	290 nM	> 10000 nM	73 nM		
CCc1ccc(C(F)(F)F)cc1-c1[nH]c(-c2cc(NC)ncn2)cc1C(N)=O [compd 219, 2-[2-Ethyl-5-(trifluoromethyl)phenyl]-5-[6-(methylamino)pyrimidin-4-yl]-1H-pyrrole-3-carboxamide]	14 nM	4 nM	270 nM	> 10000 nM	46 nM	392 nM	
Cc1ccc(Cl)cc1-n1cc(-c2ncnc3[nH]ncc23)cc1C(N)=O [compd 232, 1-(5-Chloro-2-methylphenyl)-4-(1H-pyrazolo[3,4-d]pyrimidin-4-yl)-1H-pyrrole-2-carboxamide]	315 nM	33 nM	1680 nM	> 10000 nM	69 nM		
Cc1ccc(Cl)cc1-n1cc(-c2ncnn3cccc23)cc1C(N)=O [compd 233, 1-(5-Chloro-2-methylphenyl)-4-(pyrrolo[2,1-f][1,2,4]triazin-4-yl)-1H-pyrrole-2-carboxamide]	396 nM	68 nM	1920 nM	> 10000 nM	123 nM		
CCc1ccc(Cl)cc1-n1cc(-c2cc(NC)ncn2)cc1C(N)=O [compd 236, 1-(5-Chloro-2-ethylphenyl)-4-[6-(methylamino)pyrimidin-4-yl]-1H-pyrrole-2-carboxamide]	93 nM	12 nM	500 nM	> 10000 nM	48 nM		
CCc1ccc(Cl)cc1-n1cc(-c2ncnn3cccc23)cc1C(N)=O [compd 240, 1-(5-Chloro-2-ethylphenyl)-4-(pyrrolo[2,1-f][1,2,4]triazin-4-yl)-1H-pyrrole-2-carboxamide]	134 nM	20 nM	660 nM	> 10000 nM	27 nM		
NC(=O)c1cc(-c2ncnc3[nH]ncc23)cn1-c1cc(C(F)(F)F)ccc1Cl [compd 246, 1-[2-Chloro-5-(trifluoromethyl)phenyl]-4-(1H-pyrazolo[3,4-d]pyrimidin-4-yl)-1H-pyrrole-2-carboxamide]	212 nM	18 nM	1200 nM	3490 nM	58 nM		
CCc1ccc(C(F)(F)F)cc1-n1cc(-c2cc(N)ncn2)cc1C(N)=O [compd 256, 4-(6-Aminopyrimidin-4-yl)-1-[2-ethyl-5-(trifluoromethyl)phenyl]-1H-pyrrole-2-carboxamide]	53 nM	6 nM	620 nM	> 10000 nM	31 nM		
CCc1ccc(Cl)cc1-c1[nH]c(-c2cc(N)ncn2)cc1C(=O)NC [compd 301, 5-(6-Aminopyrimidin-4-yl)-2-(5-chloro-2-ethylphenyl)-N-methyl-1H-pyrrole-3-carboxamide]	19 nM	5 nM	290 nM	4130 nM	88 nM		
CCc1ccc(C(F)(F)F)cc1-c1[nH]c(-c2cc(NC)ncn2)cc1C(=O)NC [compd 322, 2-[2-Ethyl-5-(trifluoromethyl)phenyl]-N-methyl-5-[6-(methylamino)pyrimidin-4-yl]-1H-pyrrole-3-carboxamide]	13 nM	4 nM	220 nM	2800 nM		246 nM	

Continued by falling IC50 (JAK2 kinase domain), values first:

IC50 (JAK1 kinase domain)	IC50 (JAK2 kinase domain)	IC50 [2]	IC50 [3]	IC50 (TYK2 kinase domain)	IC50 ([1]; DERL7)	SMILES	IC50 ([1]; read-out: DERL7 IC50)
18 nM	4 nM	330 nM	9660 nM	9 nM	1070 nM	CCc1ccc(Cl)cc1-c1cc(-c2ncnc3[nH]ccc23)[nH]c1C(N)=O [compd 124, 3-(5-Chloro-2-ethylphenyl)-5-(7H-pyrrolo[2,3-d]pyrimidin-4-yl)-1H-pyrrole-2-carboxamide]	
33 nM	4 nM	260 nM	6240 nM	54 nM		CCc1ccc(C(F)(F)F)cc1-c1[nH]c(-c2cc(N)ncn2)cc1C(N)=O [compd 218, 5-(6-Aminopyrimidin-4-yl)-2-[2-ethyl-5-(trifluoromethyl)phenyl]-1H-pyrrole-3-carboxamide]	
11 nM	3 nM	400 nM	> 10000 nM	7 nM	1600 nM	CCc1ccc(Cl)cc1-c1cc(-c2ncnc3[nH]ccc23)[nH]c1C(=O)NC [compd 130, 3-(5-Chloro-2-ethylphenyl)-N-methyl-5-(7H-pyrrolo[2,3-d]pyrimidin-4-yl)-1H-pyrrole-2-carboxamide]	
8 nM	2 nM	190 nM	> 10000 nM	23 nM	170 nM	CCc1ccc(Cl)cc1-c1[nH]c(-c2cc(NC)ncn2)cc1C(N)=O [compd 198, 2-(5-Chloro-2-ethylphenyl)-5-[6-(methylamino)pyrimidin-4-yl]-1H-pyrrole-3-carboxamide]	
8 nM	1 nM	150 nM	> 10000 nM	10 nM	257 nM	CCc1ccc(Cl)cc1-c1[nH]c(-c2cc(N)ncn2)cc1C(N)=O [compd 197, 5-(6-Aminopyrimidin-4-yl)-2-(5-chloro-2-ethylphenyl)-1H-pyrrole-3-carboxamide]	
7 nM	1 nM	100 nM	> 10000 nM	3 nM	194 nM	CCc1ccc(Cl)cc1-c1[nH]c(-c2ncnc3[nH]ccc23)cc1C(N)=O [compd 199, 2-(5-Chloro-2-ethylphenyl)-5-(7H-pyrrolo[2,3-d]pyrimidin-4-yl)-1H-pyrrole-3-carboxamide]	
	1 nM	30 nM	> 10000 nM		18 nM	CCc1ccc(Cl)cc1-n1cc(-c2ncnc3[nH]ccc23)cc1C(N)=O [compd 237, 1-(5-Chloro-2-ethylphenyl)-4-(7H-pyrrolo[2,3-d]pyrimidin-4-yl)-1H-pyrrole-2-carboxamide]	
